Test results from patent publication US5559101A, “L-ribofuranosyl nucleosides” (priority 1994, dated 1996).
≈ marks a conversion by molar mass, not a printed value.

Legend:
OM-1 (colon) = assay: Radiometric growth inhibition of tumor cells, OM-1; type: cell-based, human
Source text: (§1) CELL LINES: Eight different established human cell lines CALU (lung), COLO320 (colon), H578St (breast), HT-29 (colon), MCF-7 (breast), OM-1 (colon), SKLU (lung) and SKMES(lung), and two control cell lines (bone marrow and/or fibroblast cells) were utilized. All cell lines were obtained from the Tumor Cloning Laboratory, Institute for Drug Development, Cancer Therapy and Research Center, San Antonio, Tex. All cell lines grew as monolayers in the appropriate culture medium supplemented with heat-inactivated calf serum. All reagents were obtained from Grand Island Biological Co., Grand Island, N.Y.
(§2) The iv formulations of the compounds of the present invention were prepared with sterile buffered saline and stored at -70° C. until required for testing.
(§3) Following trypsinization, tumor cells were suspended in tissue culture medium and exposed to the antitumor agents continuously at three different concentrations: 10, 1 and 0.1 μg/ml.
(§4) RADIOMETRIC MEASUREMENT OF GROWTH INHIBITION: Growth inhibition was assessed with the BACTEC System 460 (Johnston Laboratories, Towson, Md.) after addition of the antitumor agent to the cell in the respective growth medium containing ^14 C-glucose at a final concentration of 2 μCi/ml.
(§5) Two mls of the tumor cell suspension containing radioactive glucose were seeded into sterile, disposable 15 ml vials by injection through self-sealing rubber-aluminum caps. […] The seeded vials were then incubated at 37° C. Measurement of the release of ^14 CO2 resulting from the metabolism of ^14 C-glucose were performed on days 6, 9, 12 and 15 in the BACTEC instrument. This instrument flushes the ^14 CO2 containing air out of the vials into an ionization chamber that converts dpm to growth index values. […] Each data point represents triplicate values.
(§6) All compounds were dosed on an equimilimolar basis.

COLO320 (colon) = assay: Radiometric growth inhibition of tumor cells, COLO320; type: cell-based, human
Source text: as §1, §2, §3, §4, §5, §6

SKLU (lung) = assay: Radiometric growth inhibition of tumor cells, SKLU; type: cell-based, human
Source text: as §1, §2, §3, §4, §5, §6

CALU (lung) = assay: Radiometric growth inhibition of tumor cells, CALU; type: cell-based, human; set-up: % SURVIVAL TUMOR: concentration or dose not given beside the values
Source text: as §1, §2, §3, §4, §5, §6

[1] = In vitro survival of bone marrow control cells (radiometric BACTEC); type: cell-based; conditions: bone marrow cells
Source text: as §1, §2, §3, §4, §5, §6

SKMES (lung) = assay: Radiometric growth inhibition of tumor cells, SKMES; type: cell-based, human
Source text: as §1, with “N.Y. […]” for “N.Y.”
RADIOMETRIC MEASUREMENT OF GROWTH INHIBITION: Growth inhibition was assessed with the BACTEC System 460 (Johnston Laboratories, Towson, Md.) after addition of the antitumor agent to the cell in the respective growth medium containing ^14 C-glucose at a final concentration of 2 μCi/ml. […]
Two mls of the tumor cell suspension containing radioactive glucose were seeded into sterile, disposable 15 ml vials by injection through self-sealing rubber-aluminum caps. […] Chemotherapy sensitivity was calculated by comparing the growth index values of drug-treated vials to that observed in control vials. […]

HT29 (colon) = assay: Radiometric growth inhibition of tumor cells, HT29; type: cell-based, human; set-up: % SURVIVAL TUMOR: concentration or dose not given beside the values
Source text: as §1, §2, §3, §4, §5, §6

HS578T (breast) = assay: Radiometric growth inhibition of tumor cells, HS578T; type: cell-based, human
Source text: as §1, §2, §3, §4, §5, §6

MCF-7 (breast) = assay: Radiometric growth inhibition of tumor cells, MCF-7; type: cell-based, human; set-up: % SURVIVAL TUMOR: concentration or dose not given beside the values
Source text: as §1, §2, §3, §4, §5, §6

With O=c1[nH]cc(F)c(=O)[nH]1 [Example 5-FU, 5-fluorouracil, reference compound] the IC50 (OM-1 (colon); Homo sapiens) was 1.47 µg/mL (≈ 11.3 µM), the “% SURVIVAL TUMOR” value (OM-1 (colon); human, om-1 colon tumor cells) was 1.7% and the IC50 (COLO320 (colon); Homo sapiens, COLO 320) was less than 0.6 µg/mL. The “% SURVIVAL TUMOR” value (COLO320 (colon); human, colo320 colon tumor cells) was 1.0%, the IC50 (SKLU (lung); Homo sapiens) was 1.05 µg/mL (≈ 8.07 µM) and the “% SURVIVAL TUMOR” value (SKLU (lung); human, sklu lung tumor cells) was 5.0%. The “% SURVIVAL TUMOR” value (CALU (lung); CALU, continuous exposure) was 2.2%, the IC50 (CALU (lung); Homo sapiens) was less than 0.6 µg/mL and the viability [1] was 1.9%. The IC50 (SKMES (lung); Homo sapiens, concentration required to kill 50%) was less than 0.6 µg/mL, the “% SURVIVAL TUMOR” value (SKMES (lung); continuous exposure) was 11.2% and the “% SURVIVAL TUMOR” value (HT29 (colon); HT29, continuous exposure) was 1.2%. The IC50 (HT29 (colon); Homo sapiens, HT-29) was 0.613 µg/mL (≈ 4.71 µM), the “% SURVIVAL TUMOR” value (HS578T (breast); HS578T, continuous exposure) was 43.5% and the IC50 (HS578T (breast); Homo sapiens, Hs-578T) was less than 0.6 µg/mL. The IC50 (MCF-7 (breast); Homo sapiens, MCF7) was less than 0.6 µg/mL and the “% SURVIVAL TUMOR” value (MCF-7 (breast); MCF-7, continuous exposure) was 0.8%.
